Assay [1] addresses T1, EGFR (L858R T790M C797S) (Homo sapiens, UniProt P00533, C797S/L858R/T790M).
T1 construct: purchased SignalChem E10-122VG
The experiment in a line: Biochemical EGFR inhibition assay (Caliper mobility shift), EGFR LRTMCS mutant. The following applies: inhibitory activity against EGFR LRTMCS mutant; apparent IC50; read-out: Ext Enz LRTMCS. Summed up: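 Kinase reactions proceed at 25° C. to 10%–20% conversion of total peptide, are terminated with 35 mM EDTA, and the phosphopeptide is resolved from substrate by electrophoretic mobility shift. Apparent IC50 values come from plotting percent activity against log compound concentration.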

Assay [2] deals with phosphorylation of EGFR (Tyr1068) in NCI-H1975 cell line that harbors the EGFR L858R T790M mutations. The experiment in a line: NCI-H1975 pEGFR AlphaLISA assay. It is filed as cell-based. The settings on record: 4-5 hours incubation, read-out: Ext pEGFR H1975. Summed up: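 NCI-H1975 cells (EGFR L858R/T790M) seeded overnight, then treated with compound for 4-5 h at 37 °C/5% CO2. After lysis, p-EGFR (Tyr1068) quantified by AlphaLISA SureFire Ultra with acceptor then donor beads; IC50 fitted from percent inhibition versus log concentration.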
On the technique in general: Bead proximity is the source of the signal in Alpha formats.

Where [3] appears, read: inhibition of phosphorylation of mutant EGFR in NCI-H1975 cells.
Where [4] appears, read: Homo sapiens, NCI-H1975, inhibition of phosphorylation of mutant EGFR in NCI-H1975 cells.

Read-outs that look alike come from different tables or passages of the source.

As to `CO[C@H]1CN(c2nccc(Nc3cc4c(C(C)C)ccc(N5C[C@H](CS(C)(=O)=O)[C@H]5C)c4cn3)n2)CC[C@@H]1O` (single isomer, unassigned) [Compound 96, (3S,4S)-1-[4-({8-[(2R,3S)-3-(methanesulfonylmethyl)-2-methylazetidin-1-yl]-5-(propan-2-yl)isoquinolin-3-yl}amino)pyrimidin-2-yl]-3-methoxypiperidin-4-ol or (3R,4R)-1-[4-({8-[(2R,3S)-3-(methanesulfonylmethyl)-2-methylazetidin-1-yl]-5-(propan-2-yl)isoquinolin-3-yl}amino)pyrimidin-2-yl]-3-methoxypiperidin-4-ol], the IC50 in assay [1] fell in the range of 20.1 to 30 nM; in assay [2] (setting [3]) it was 10.1 to 20 nM.
Take `CC(C)c1ncc(N2C[C@H](CS(C)(=O)=O)[C@H]2C)c2cnc(Nc3ccnc(N4CC[C@](C)(O)[C@H](F)C4)n3)cc12` (single isomer, unassigned) [Compound 136]: the IC50 in assay [1] is no more than 15 nM; in assay [2] (setting [4]) it was 10.1 to 20 nM.
For the compound `CO[C@H]1CCN(c2nccc(Nc3cc4c(C(C)C)cnc(N5C[C@H](CS(C)(=O)=O)[C@H]5C)c4cn3)n2)C[C@@H]1O` (single isomer, unassigned) [Compound 106, (3S,4S)-1-[4-({8-[(2R,3S)-3-(methanesulfonylmethyl)-2-methylazetidin-1-yl]-5-(propan-2-yl)-2,7-naphthyridin-3-yl}amino)pyrimidin-2-yl]-4-methoxypiperidin-3-ol or (3R,4R)-1-[4-({8-[(2R,3S)-3-(methanesulfonylmethyl)-2-methylazetidin-1-yl]-5-(propan-2-yl)-2,7-naphthyridin-3-yl}amino)pyrimidin-2-yl]-4-methoxypiperidin-3-ol], the IC50 in assay [1] is no more than 15 nM; in assay [2] (setting [4]), no more than 10 nM.
“(R)-methyl({1-[3-({2-[(3R,4S)-3-fluoro-4-methoxypiperidin-1-yl]pyrimidin-4-yl}amino)-5-(propan-2-yl)isoquinolin-8-yl]azetidin-3-yl}methyl)imino-λ^6-sulfanone or (S)-methyl({1-[3-({2-[(3R,4S)-3-fluoro-4-methoxypiperidin-1-yl]pyrimidin-4-yl}amino)-5-(propan-2-yl)isoquinolin-8-yl]azetidin-3-yl}methyl)imino-λ^6-sulfanone [Compound 274]”: the IC50 in assay [1] lay within 15.1 to 20 nM; in assay [2] (setting [3]), 10.1 to 20 nM.
As to `CC(C)c1cnc(N2CC(CS(C)(=O)=O)C2)c2cnc(Nc3ccnc(N4C[C@H](F)[C@@H](F)C4)n3)cc12` (single isomer, unassigned) [Compound 8, N-{2-[(3S,4S)-3,4-difluoropyrrolidin-1-yl]pyrimidin-4-yl}-8-[3-(methanesulfonylmethyl)azetidin-1-yl]-5-(propan-2-yl)-2,7-naphthyridin-3-amine or N-{2-[(3R,4R)-3,4-difluoropyrrolidin-1-yl]pyrimidin-4-yl}-8-[3-(methanesulfonylmethyl)azetidin-1-yl]-5-(propan-2-yl)-2,7-naphthyridin-3-amine], the IC50 was no more than 15 nM in assay [1] and 30.1 to 50 nM in assay [2] (setting [3]).
As to `CO[C@@H]1CCN(c2nccc(Nc3cc4c(C(C)C)ncc(N5CC(CS(C)(=O)=O)C5)c4cn3)n2)C[C@@H]1F` [Compound 74, N-{2-[(3S,4R)-3-fluoro-4-methoxypiperidin-1-yl]pyrimidin-4-yl}-8-[3-(methanesulfonylmethyl)azetidin-1-yl]-5-(propan-2-yl)-2,6-naphthyridin-3-amine], the IC50 in assay [1] is no more than 15 nM; in assay [2] (setting [4]), no more than 10 nM.
On to `CC(C)c1ccc(N2CC(CS(C)(=O)=O)C2)c2cnc(Nc3ccnc(N4CC[C@](C)(O)[C@](C)(F)C4)n3)cc12` (single isomer, unassigned) [Compound 113, (3R,4S)-3-fluoro-1-[4-({8-[3-(methanesulfonylmethyl)azetidin-1-yl]-5-(propan-2-yl)isoquinolin-3-yl}amino)pyrimidin-2-yl]-3,4-dimethylpiperidin-4-ol or (3S,4R)-3-fluoro-1-[4-({8-[3-(methanesulfonylmethyl)azetidin-1-yl]-5-(propan-2-yl)isoquinolin-3-yl}amino)pyrimidin-2-yl]-3,4-dimethylpiperidin-4-ol], for which the IC50 was no more than 15 nM in assay [1] and 10.1 to 20 nM in assay [2] (setting [4]).
Turning to `[2H]C([2H])([2H])O[C@H]1CCN(c2nccc(Nc3cc4c(C(C)C)cnc(N5C[C@H](CS(C)(=O)=O)[C@H]5C)c4cn3)n2)C[C@H]1F` (single isomer, unassigned) [Compound 285], the IC50 is no more than 15 nM in assay [1] and no more than 10 nM in assay [2] (setting [4]).
Consider `CCS(=O)(=O)C[C@H]1CN(c2ncc(C(C)C)c3cc(Nc4ccnc(N5CC[C@@](C)(O)C(F)(F)C5)n4)ncc23)[C@@H]1C` (single isomer, unassigned) [Compound 230, (4R)-1-[4-({8-[(2R,3S)-3-[(ethanesulfonyl)methyl]-2-methylazetidin-1-yl]-5-(propan-2-yl)-2,7-naphthyridin-3-yl}amino)pyrimidin-2-yl]-3,3-difluoro-4-methylpiperidin-4-ol or (4S)-1-[4-({8-[(2R,3S)-3-[(ethanesulfonyl)methyl]-2-methylazetidin-1-yl]-5-(propan-2-yl)-2,7-naphthyridin-3-yl}amino)pyrimidin-2-yl]-3,3-difluoro-4-methylpiperidin-4-ol], for which the IC50 was 15.1 to 20 nM in assay [1] and no more than 10 nM in assay [2] (setting [4]).
On to `CCS(=O)(=O)C[C@H]1CN(c2ccc(C(C)C)c3cc(Nc4ccnc(N5CC[C@@H](OCCO)[C@@H](F)C5)n4)ncc23)[C@@H]1C` [Compound 244, 2-((3S,4R)-1-(4-(8-((2R,3S)-3-(ethylsulfonylmethyl)-2-methylazetidin-1-yl)-5-isopropylisoquinolin-3-ylamino)pyrimidin-2-yl)-3-fluoropiperidin-4-yloxy)ethanol], for which the IC50 in assay [1] is no more than 15 nM; in assay [2] (setting [4]) it was no more than 10 nM.
`C[C@H](CO)c1ccc(N2C[C@H](CS(C)(=O)=O)[C@H]2C)c2cnc(Nc3ccnc(N4CC[C@@](C)(O)[C@@H](F)C4)n3)cc12` (single isomer, unassigned) [Compound 199, (3S,4R)-3-fluoro-1-(4-(5-((S)-1-hydroxypropan-2-yl)-8-((2R,3S)-2-methyl-3-(methylsulfonylmethyl)azetidin-1-yl)isoquinolin-3-ylamino)pyrimidin-2-yl)-4-methylpiperidin-4-ol or (3S,4R)-3-fluoro-1-(4-((5-((R)-1-hydroxypropan-2-yl)-8-((2R,3S)-2-methyl-3-((methylsulfonyl)methyl)azetidin-1-yl)isoquinolin-3-yl)amino)pyrimidin-2-yl)-4-methylpiperidin-4-ol]: the IC50 in assay [1] is no more than 15 nM; in assay [2] (setting [4]) it was 10.1 to 20 nM.
On to `CCS(=O)(=O)CC1CN(c2ccc(C(C)C)c3cc(Nc4ccnc(N5CC[C@@H](OC)[C@@H](F)C5)n4)ncc23)C1` [Compound 261, 8-{3-[(ethanesulfonyl)methyl]azetidin-1-yl}-N-{2-[(3S,4R)-3-fluoro-4-methoxypiperidin-1-yl]pyrimidin-4-yl}-5-(propan-2-yl)isoquinolin-3-amine], for which the IC50 in assay [1] is no more than 15 nM; in assay [2] (setting [4]), no more than 10 nM.
Turning to `CO[C@H]1CCN(c2nccc(Nc3cc4c(C(C)C)cnc(N5CC(CS(C)(=O)=O)C5)c4cn3)n2)C[C@H]1F` [Compound 71, N-{2-[(3R,4S)-3-fluoro-4-methoxypiperidin-1-yl]pyrimidin-4-yl}-8-[3-(methanesulfonylmethyl)azetidin-1-yl]-5-(propan-2-yl)-2,7-naphthyridin-3-amine], the values for the IC50 in assay [1] and in assay [2] (setting [4]) were no more than 15 nM and no more than 10 nM, respectively.
Take `CO[C@@H]1[C@H](O)CN(c2nccc(Nc3cc4c(C(C)C)ncc(N5C[C@H](CS(C)(=O)=O)[C@H]5C)c4cn3)n2)CC1(F)F` (single isomer, unassigned) [Compound 233, (3R,4R)-5,5-difluoro-1-[4-({8-[(2R,3S)-3-(methanesulfonylmethyl)-2-methylazetidin-1-yl]-5-(propan-2-yl)-2,6-naphthyridin-3-yl}amino)pyrimidin-2-yl]-4-methoxypiperidin-3-ol or (3S,4S)-5,5-difluoro-1-[4-({8-[(2R,3S)-3-(methanesulfonylmethyl)-2-methylazetidin-1-yl]-5-(propan-2-yl)-2,6-naphthyridin-3-yl}amino)pyrimidin-2-yl]-4-methoxypiperidin-3-ol]: the IC50 in assay [1] is no more than 15 nM; in assay [2] (setting [4]), no more than 10 nM.
Turning to `CO[C@@H]1CCN(c2nccc(Nc3cc4c(C(C)C)cnc(N5CC(CS(C)(=O)=O)C5)c4cn3)n2)C[C@]1(C)F` (single isomer, unassigned) [Compound 143], the IC50 in assay [1] was no more than 15 nM; in assay [2] (setting [4]) it was no more than 10 nM.
Turning to `CC(C)c1ccc(N2C[C@@H](CS(C)(=O)=O)[C@H]2C)c2cnc(Nc3ccnc(N4CC[C@](C)(O)[C@H](F)C4)n3)cc12` (single isomer, unassigned) [Compound 121], the IC50 was 15.1 to 20 nM in assay [1] and no more than 10 nM in assay [2] (setting [4]).
Turning to `CO[C@]1(C)CN(c2nccc(Nc3cc4c(C(C)C)ccc(N5CC(CS(C)(=O)=O)C5)c4cn3)n2)CC[C@@H]1O` (single isomer, unassigned) [Compound 94, (3R,4S)-1-[4-({8-[3-(methanesulfonylmethyl)azetidin-1-yl]-5-(propan-2-yl)isoquinolin-3-yl}amino)pyrimidin-2-yl]-3-methoxy-3-methylpiperidin-4-ol or (3S,4R)-1-[4-({8-[3-(methanesulfonylmethyl)azetidin-1-yl]-5-(propan-2-yl)isoquinolin-3-yl}amino)pyrimidin-2-yl]-3-methoxy-3-methylpiperidin-4-ol], the IC50 is no more than 15 nM in assay [1] and 20.1 to 30 nM in assay [2] (setting [4]).

For the origin of these results see patent publication US12172983B2, “EGFR inhibitors” (Blueprint Medicines Corporation, priority 2019, dated 2024).
